The record followed here is patent US20240376056A1, “PHENYL ACETAMIDE BASED IL-17A MODULATORS AND USES THEREOF” (DiCE Alpha, Inc., priority 2021, published 2024).

Each structure is given as a SMILES string.

This assay concerns the target T1, IL-17A/A (Homo sapiens, UniProt Q16552).
T1 construct: purchased Genscript Z03228
T1 sequence (Q16552 24-155): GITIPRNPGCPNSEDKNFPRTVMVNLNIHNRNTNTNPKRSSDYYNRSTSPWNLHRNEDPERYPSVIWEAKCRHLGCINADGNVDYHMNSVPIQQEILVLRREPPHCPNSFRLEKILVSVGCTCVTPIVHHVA
As to the kind of experiment: HEK-Blue IL-17A/A inhibition assay (SEAP reporter). The assay is classed as cell-based. The conditions noted are these: HEK-Blue cells (HEK 293 expressing IL-17RA, IL-17RC, Act1); IL-17A/A stimulation; 20 hours; SEAP read at A630; 4-parameter fit. The procedure, abridged:
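HEK 293 cells engineered with IL-17RA, IL-17RC and Act1 (NFκB-driven SEAP) given titrated compound (top final 10, 1 or 0.3 uM; 0.1% DMSO) just before IL-17A/A, then incubated 20 h. SEAP in media developed with Quanti-Blue, read at A630; IC50 by 4-parameter nonlinear fit.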

Turning to `CCn1ncc(F)c1C(=O)N[C@H](C(=O)Nc1ccc([C@H](C)C(=O)N(C)CC(F)(F)F)cc1F)C(C1CC1)C1CC1` [Compound 79, N-((S)-1,1-dicyclopropyl-3-((2-fluoro-4-((S)-1-(methyl(2,2,2-trifluoroethyl)amino)-1-oxopropan-2-yl)phenyl)amino)-3-oxopropan-2-yl)-1-ethyl-4-fluoro-1H-pyrazole-5-carboxamide], the IC50 was in the range of 0.1 to 1 µM.
As for `CCC(c1ccc(F)cc1)[C@H](NC(=O)c1ccnn1C(C)C)C(=O)Nc1cc(OC)c(C(C)C(=O)NCC(F)(F)F)cc1F` (stereo partly drawn) [Compound 175], the figure is 0.1 to 1 µM; as for `CCn1nccc1C(=O)N[C@H](C(=O)Nc1ccc([C@H](C)C(=O)N(C)CC(F)(F)F)cc1F)[C@@H]1CCc2ccccc21` [Compound 91, N-((S)-1-((R)-2,3-dihydro-1H-inden-1-yl)-2-((2-fluoro-4-((S)-1-(methyl(2,2,2-trifluoroethyl)amino)-1-oxopropan-2-yl)phenyl)amino)-2-oxoethyl)-1-ethyl-1H-pyrazole-5-carboxamide], more than 1 µM; as for `Cc1cc(NC(=O)[C@@H](NC(=O)c2ccnn2C(C)C)C(C2CC2)C2CC2)c(F)cc1C(C)C(=O)NC(C(N)=O)C(F)(F)F` (stereo partly drawn) [Compound 178], 0.1 to 1 µM.
For the molecule `CCn1nccc1C(=O)N[C@H](C(=O)Nc1cc(C)c(C(C)C(=O)NCC(F)(F)F)cc1F)C(C1CC1)C1CC1` (stereo partly drawn) [Compound 236], the half-maximal inhibitory concentration (IC50) is less than 0.1 µM.
Consider `CC(C(=O)N(C)CC(F)(F)F)c1cc(F)c(NC(=O)[C@@H](NC(=O)c2ccnn2C(C)C)C(C2CC2)C2CC2)cc1OC(F)(F)F` (stereo partly drawn) [Compound 246], for which the IC50 was more than 1 µM.
Take `CCn1nccc1C(=O)N[C@H](C(=O)Nc1ccc([C@H](C)C(=O)N(CCO)CC(F)(F)F)cc1F)C(C1CC1)C1CC1` [Compound 10, N-((S)-1,1-dicyclopropyl-3-((2-fluoro-4-((S)-1-((2-hydroxyethyl)(2,2,2-trifluoroethyl)amino)-1-oxopropan-2-yl)phenyl)amino)-3-oxopropan-2-yl)-1-ethyl-1H-pyrazole-5-carboxamide]: the 50% inhibitory concentration (IC50) fell in the range of 0.1 to 1 µM.
Turning to `CC(C(=O)NCC(F)(F)F)c1cc(F)c(NC(=O)[C@@H](NC(=O)c2ccnn2C(C)C)C(C2CC2)C2CC2)cc1N1CCOCC1` (stereo partly drawn) [Compound 232], the IC50 was more than 1 µM.
In the case of `CNCCN(CC(F)(F)F)C(=O)[C@@H](C)c1ccc(NC(=O)[C@@H](NC(=O)c2ccnn2C(C)C)C(C2CC2)C2CC2)c(F)c1` [Compound 22, N-((S)-1,1-dicyclopropyl-3-((2-fluoro-4-((S)-1-((2-(methylamino)ethyl)(2,2,2-trifluoroethyl)amino)-1-oxopropan-2-yl)phenyl)amino)-3-oxopropan-2-yl)-1-isopropyl-1H-pyrazole-5-carboxamide], the IC50 lay within 0.1 to 1 µM.
As for `CC(C(=O)NCC(F)(F)F)c1cc(F)c(NC(=O)[C@@H](NC(=O)c2ccnn2C(C)C)C(C2CC2)C2CC2)cc1OC(F)(F)F` (single isomer, unassigned) [Compound 185], the IC50 was less than 0.1 µM.
Regarding `CC(C(=O)N(C)CC(F)(F)F)c1cc(F)c(NC(=O)[C@@H](NC(=O)c2ccnn2C(C)C)C(C2CC2)C2CC2)cc1N(C)C` (single isomer, unassigned) [Compound 162], the half-inhibitory concentration (IC50) is less than 0.1 µM.
Take `CCn1nccc1C(=O)N[C@H](C(=O)Nc1c(F)cc(C(C)C(=O)NCC(F)(F)F)cc1F)C(C1CC1)C1CC1` (single isomer, unassigned) [Compound 170]: the IC50 is more than 1 µM.
For the molecule `COc1cc(NC(=O)[C@@H](NC(=O)c2ccnn2C(C)C)C(C2CC2)C2CC2)c(F)cc1C(C)C(=O)NCC(F)(F)F` (single isomer, unassigned) [Compound 123], the half-maximal inhibitory concentration (IC50) is less than 0.1 µM.
Next, `CC(C(=O)NCC(F)(F)F)c1cc(F)c(NC(=O)[C@@H](NC(=O)c2ccnn2C(C)C)C2CCC(F)(F)CC2)cc1OC(F)(F)F` (single isomer, unassigned) [Compound 219]: 0.1 to 1 µM.
As for `CCn1nccc1C(=O)N[C@H](C(=O)Nc1cc(C(F)(F)F)c(C(C)C(=O)NC(CO)C(F)(F)F)cc1F)C(C1CC1)C1CC1` (single isomer, unassigned) [Compound 241], the figure is more than 1 µM; as for `CC(C)n1nccc1C(=O)N[C@H](C(=O)Nc1ccc([C@H](C)C(=O)NCC(F)(F)CNC(=O)OC(C)(C)C)cc1F)C(C1CC1)C1CC1` [Compound 35, tert-butyl (3-((S)-2-(4-((S)-3,3-dicyclopropyl-2-(1-isopropyl-1H-pyrazole-5-carboxamido)propanamido)-3-fluorophenyl)propanamido)-2,2-difluoropropyl)carbamate], more than 1 µM; as for `CC(CN1CCOCC1)n1nccc1C(=O)N[C@H](C(=O)Nc1ccc([C@H](C)C(=O)NCC(F)(F)F)cc1F)C(C1CC1)C1CC1` (single isomer, unassigned) [Compound 92], 0.1 to 1 µM.
With `CCn1nccc1C(=O)N[C@H](C(=O)Nc1ccc(C(C)(C)C(=O)NCC(F)(F)F)cc1F)C1CCCCCC1` [Compound 7, (S)-N-(1-cycloheptyl-2-((2-fluoro-4-(2-methyl-1-oxo-1-((2,2,2-trifluoroethyl)amino)propan-2-yl)phenyl)amino)-2-oxoethyl)-1-ethyl-1H-pyrazole-5-carboxamide], the half-maximal inhibitory concentration (IC50) lay in the range of 0.1 to 1 µM.
In the case of `Cc1cc(NC(=O)[C@@H](NC(=O)c2ccnn2C)C(C2CC2)C2CC2)c(F)cc1C(C)C(=O)NCC(F)(F)F` (stereo partly drawn) [Compound 222], the IC50 is more than 1 µM.
As for `Cc1cc(NC(=O)[C@@H](NC(=O)c2ccnn2C(C)C)C(C2CC2)C2CC2)c(F)cc1C(C)C(=O)N1CC(O)CC1C(F)(F)F` (single isomer, unassigned) [Compound 200], the figure is 0.1 to 1 µM; as for `CC(C)n1nccc1C(=O)N[C@H](C(=O)Nc1ccc([C@H](C)C(=O)N2CCOC2C(F)(F)F)cc1F)C(C1CC1)C1CC1` (single isomer, unassigned) [Compound 48], 0.1 to 1 µM.
Consider `CC(C(=O)NCC(F)(F)F)c1cc(F)c(NC(=O)[C@@H](NC(=O)c2ccnn2C(C)C)C(C2CC2)C2CC2)cc1C#N` (single isomer, unassigned) [Compound 118], for which the IC50 was more than 1 µM.
Consider `CC(C)n1nccc1C(=O)N[C@H](C(=O)Nc1ccc([C@H](C)C(=O)N2C(C(N)=O)CCC2C(F)(F)F)cc1F)C(C1CC1)C1CC1` (single isomer, unassigned) [Compound 147], for which the IC50 was more than 1 µM.
As for `CC[C@@H](c1ccc(F)cc1)[C@H](NC(=O)c1ccnn1CC)C(=O)Nc1ccc([C@H](C)C(=O)N(C)CC(F)(F)F)cc1F` [Compound 85, -ethyl-N-((2S,3S)-1-((2-fluoro-4-((S)-1-(methyl(2,2,2-trifluoroethyl)amino)-1-oxopropan-2-yl)phenyl)amino)-3-(4-fluorophenyl)-1-oxopentan-2-yl)-1H-pyrazole-5-carboxamide], the figure is 0.1 to 1 µM; as for `CC(C(=O)NCC(F)(F)F)c1cc(F)c(NC(=O)[C@@H](NC(=O)c2ccnn2C(C)C)C(C2CC2)C2CC2)cc1NC(F)(F)F` (single isomer, unassigned) [Compound 186], 0.1 to 1 µM.
As for `CCc1cc(NC(=O)[C@@H](NC(=O)c2ccnn2C(C)C)C(C2CC2)C2CC2)c(F)cc1[C@@H](C)C(=O)NCC(F)(F)F` [Compound 112, N-((S)-1,1-dicyclopropyl-3-((5-ethyl-2-fluoro-4-((R)-1-oxo-1-((2,2,2-trifluoroethyl)amino)propan-2-yl)phenyl)amino)-3-oxopropan-2-yl)-1-isopropyl-1H-pyrazole-5-carboxamide], the IC50 lay in the range of 0.1 to 1 µM.
On to `CC(C)n1nccc1C(=O)N[C@H](C(=O)Nc1ccc([C@H](C)C(=O)N2CCOCC2C(F)(F)F)cc1F)C(C1CC1)C1CC1` (single isomer, unassigned) [Compound 18], for which the IC50 was less than 0.1 µM.
Consider `CC(C)n1nccc1C(=O)N[C@H](C(=O)Nc1ccc([C@H](C)C(=O)NCC(F)(F)F)cc1F)C(C1CC1)C1CC1` [Compound 82, N-((S)-1,1-dicyclopropyl-3-((2-fluoro-4-((S)-1-oxo-1-((2,2,2-trifluoroethyl)amino)propan-2-yl)phenyl)amino)-3-oxopropan-2-yl)-1-isopropyl-1H-pyrazole-5-carboxamide], for which the IC50 was less than 0.1 µM.
Consider `CC(C)n1nccc1C(=O)N[C@H](C(=O)Nc1ccc(C(C(=O)NCC(F)(F)F)N2CCOCC2)cc1F)C(C1CC1)C1CC1` (single isomer, unassigned) [Compound 141], for which the IC50 is more than 1 µM.
Turning to `CC(C)n1nccc1C(=O)N[C@H](C(=O)Nc1ccc([C@H](C)C(=O)N2C[C@@H](O)[C@@H](F)C2)cc1F)C(C1CC1)C1CC1` [Compound 31, N-((S)-1.1-dicyclopropyl-3-((2-fluoro-4-((S)-1-((3S,4R)-3-fluoro-4-hydroxypyrrolidin-1-yl)-1-oxopropan-2-yl)phenyl)amino)-3-oxopropan-2-yl)-1-isopropyl-1H-pyrazole-5-carboxamide], the half-maximal inhibitory concentration (IC50) is more than 1 µM.
Take `CCC(C(=O)NCC(F)(F)F)c1ccc(NC(=O)[C@@H](NC(=O)c2ccnn2C(C)C)C(C2CC2)C2CC2)c(F)c1` (single isomer, unassigned) [Compound 149]: the IC50 is 0.1 to 1 µM.
Turning to `CC(C)n1nccc1C(=O)N[C@H](C(=O)Nc1ccc([C@H](C)C(=O)N(CC(F)(F)F)C2CCOC2)cc1F)C(C1CC1)C1CC1` (stereo partly drawn) [Compound 153], the IC50 was in the range of 0.1 to 1 µM.
In the case of `CC(C(=O)NCC(F)(F)F)c1cc(F)c(NC(=O)[C@@H](NC(=O)c2ccnn2C(C)C)C(C2CC2)C2CC2)cc1C#N` (single isomer, unassigned) [Compound 115], the IC50 was 0.1 to 1 µM.

One may read the IC50 as the concentration needed to halve the response being measured.
